Numbers after ± are expanded uncertainties.
OCCC(F)(F)C(F)(F)C(F)(F)C(F)(F)C(F)(F)C(F)(F)C(F)(F)C(F)(F)F [1-decanol, 3,3,4,4,5,5,6,6,7,7,8,8,9,9,-heptadecafluoro]
Conditions | vapor or sublimation pressure [kPa]
294.1 K, Crystal, Transpiration method | 0.003 ± 0.001

Conditions | Normal melting temperature [°C] | vapor or sublimation pressure [kPa]
357.15 K, Liquid | – | 0.708 ± 0.13
369.15 K, Liquid | – | 1.465 ± 0.21
380.15 K, Liquid | – | 2.774 ± 0.25
392.15 K, Liquid | – | 4.91 ± 0.32
397.15 K, Liquid | – | 5.1 ± 1
403.15 K, Liquid | – | 8.284 ± 0.42
415.15 K, Liquid | – | 13.8 ± 0.6
421.15 K, Liquid | – | 15.27 ± 3.1
428.15 K, Liquid | – | 22.75 ± 0.89
430.15 K, Liquid | – | 23.4 ± 4.7
439.15 K, Liquid | – | 34.45 ± 1.3
440.15 K, Liquid | – | 32 ± 6.4
445.15 K, Liquid | – | 35.67 ± 7.1
452.15 K, Liquid | – | 51.67 ± 1.8
463.15 K, Liquid | – | 72.34 ± 2.5
468.15 K, Liquid | – | 75.75 ± 15
474.15 K, Liquid | – | 100.61 ± 3.4
498.15 K, Liquid | – | 162.1 ± 32
Crystal, visual observation | 49.0 ± 2 | –
